Laboratory results as given in US20260028336A1 (Arcus Biosciences, Inc., priority 2022, published 2026).

Key:
[1] = system: Jurkat cells; test: IL-2 secretion assay in CD3/CD28-activated Jurkat cells (AlphaLISA); type: cell-based; details: Homo sapiens, CD3/CD28 T Cell Activator, 24 h, IL-2 AlphaLISA
Method: Certain compounds were also evaluated in an IL-2 secretion assay. On the day of the assay, a 16 point, 1:2 master serial dilution of each compound was prepared in Opti-MEM to span a final concentration range of 10 μM to 300 pM. Assays were set up in CORNING® tissue culture-treated 384-well microplates containing 60 nL of each dilution. […] 50,000 cells/well and added to the compound plates. After a short spin (1200 rpm for 1 min), the plates were incubated at 37° C. for 1 hour. The cells were activated by adding 15 μL of IMMUNOCULT™ Human CD3/CD28 T Cell Activator ([…] Technologies) diluted in Opti-MEM. […] The AiphaLISA signal was measured using an EnVision plate reader (PerkinElmer). EC50 values were determined by fitting the data to a standard 4-parameter logistic equation.

[2] = target: T1, Cbl-b (Homo sapiens, UniProt Q13191); test: Cbl-b probe displacement HTRF binding assay; details: 0.4 nM biotinylated Cbl-b, 150 nM BODIPY probe
T1 construct: biotin (biotinylated)
How it was run: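 Biotinylated Cbl-b was preincubated with compound for 60 min at room temperature in HEPES/NaCl/Triton/TCEP/BSA buffer. BODIPY probe was added for 15 min, followed by streptavidin-terbium, and the HTRF signal was read. Displacement was normalised to DMSO and no-protein controls, and affinity was obtained from a four-parameter dose-response fit.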

T1 sequence (Q13191 whole entry, species assumed): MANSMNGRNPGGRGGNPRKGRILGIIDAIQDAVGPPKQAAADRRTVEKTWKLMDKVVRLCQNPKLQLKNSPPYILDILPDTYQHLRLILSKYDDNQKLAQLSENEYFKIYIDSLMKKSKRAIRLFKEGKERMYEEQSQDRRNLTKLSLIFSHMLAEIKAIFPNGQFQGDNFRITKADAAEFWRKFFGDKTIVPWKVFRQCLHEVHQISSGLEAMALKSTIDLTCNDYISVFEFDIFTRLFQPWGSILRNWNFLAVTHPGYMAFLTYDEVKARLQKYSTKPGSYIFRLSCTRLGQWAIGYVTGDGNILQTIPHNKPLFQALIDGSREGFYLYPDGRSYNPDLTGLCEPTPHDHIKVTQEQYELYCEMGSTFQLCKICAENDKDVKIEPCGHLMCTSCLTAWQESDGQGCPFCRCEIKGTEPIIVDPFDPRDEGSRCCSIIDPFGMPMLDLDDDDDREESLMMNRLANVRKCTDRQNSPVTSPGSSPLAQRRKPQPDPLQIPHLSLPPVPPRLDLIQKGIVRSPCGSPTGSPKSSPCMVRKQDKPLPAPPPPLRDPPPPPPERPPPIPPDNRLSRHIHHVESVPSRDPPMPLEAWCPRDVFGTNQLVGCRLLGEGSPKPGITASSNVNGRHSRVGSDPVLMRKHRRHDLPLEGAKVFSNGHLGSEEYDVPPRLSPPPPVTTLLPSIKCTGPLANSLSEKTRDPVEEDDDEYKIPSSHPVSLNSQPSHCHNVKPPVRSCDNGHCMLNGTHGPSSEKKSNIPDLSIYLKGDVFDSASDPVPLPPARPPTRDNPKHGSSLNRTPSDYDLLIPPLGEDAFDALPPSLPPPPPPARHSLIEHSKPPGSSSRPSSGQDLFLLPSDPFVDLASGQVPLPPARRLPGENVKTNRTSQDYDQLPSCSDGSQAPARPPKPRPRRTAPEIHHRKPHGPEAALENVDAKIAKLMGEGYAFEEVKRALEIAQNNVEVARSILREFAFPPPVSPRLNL

SMILES	EC50 [1] [nM]	IC50 [2] [nM]
C[C@@H]1CN(Cc2cc3c(C4CC4)cn(-c4cccc(C5(c6nncn6C)CC6(CC6)C5)c4)c(=O)c3[nH]2)CCO1 [Example 71, 4-cyclopropyl-2-[[(2R)-2-methylmorpholin-4-yl]methyl]-6-[3-[5-(4-methyl-1,2,4-triazol-3-yl)spiro[2.3]hexan-5-yl]phenyl]-1H-pyrrolo[2,3-c]pyridin-7-one]	100 to 1000	< 100
C[C@H]1CCCN(Cc2cc3c(C(F)(F)F)cn(-c4cccc(C5(c6nncn6C)CC6(CC6)C5)c4)c(=O)c3[nH]2)C1 [Example 105]	< 100	< 100
C[C@H]1CCCN(Cc2cc3ncn(-c4cccc([C@]5(c6nncn6C(F)F)C[C@H](F)C5)c4)c(=O)c3[nH]2)C1 [Example 149, 2—{[(S)-3-methyl-1-piperidyl]methyl}-6-(m-{(1r,3S)-1-[4-(difluoromethyl)-4H-1,2,4-triazol-3-yl]-3-fluorocyclobutyl}phenyl)-1,6-dihydro-1,4,6-triaza-7-indenone]	< 100	< 100
CC1CC(c2cccc(-n3cc(C4CC4)c4cc(CNC5(C)CCC5)[nH]c4c3=O)c2)(c2nncn2C)C1 (centres unmarked) [Example 39, 4-cyclopropyl-6-{3-[3-methyl-1-(4-methyl-4H-1,2,4-triazol-3-yl)cyclobutyl]phenyl}-2-{[(1-methylcyclobutyl)amino]methyl}-1H,6H,7H-pyrrolo[2,3-c]pyridin-7-one]	< 100	< 100
Cn1cnnc1C1(c2cccc(-n3cc(C4CC4)c4cc(CN5CC[C@@H](F)[C@H](O)C5)[nH]c4c3=O)c2)CC(F)(F)C1 [Example 93, 4-cyclopropyl-6-{3-[3,3-difluoro-1-(4-methyl-4H-1,2,4-triazol-3-yl)cyclobutyl]phenyl}-2-{[(3R,4R)-4-fluoro-3-hydroxypiperidin-1-yl]methyl}-1H,6H,7H-pyrrolo[2,3-c]pyridin-7-one]	1000 to 5000	100 to 1000
C[C@H]1CCCN(Cc2cc3c(C4CC4)cn(-c4cccc(C5(c6nncn6C)CC6(CC6)C5)c4)c(=O)c3[nH]2)C1 [Example 74, 4-cyclopropyl-2-[[(3S)-3-methylpiperidin-1-yl]methyl]-6-[3-[5-(4-methyl-1,2,4-triazol-3-yl)spiro[2.3]hexan-5-yl]phenyl]-1H-pyrrolo[2,3-c]pyridin-7-one]	< 100	< 100
C[C@@H]1CN(Cc2nc3c(C4CC4)cn(-c4cccc([C@]5(c6nncn6C)C[C@H](C)C5)c4)c(=O)c3[nH]2)CCO1 [Example 110, 7-cyclopropyl-5-[3-[3-methyl-1-(4-methyl-1,2,4-triazol-3-yl)cyclobutyl]phenyl]-2-[[(2R)-2-methylmorpholin-4-yl]methyl]-3H-imidazo[4,5-c]pyridin-4-one]	100 to 1000	< 100
C[C@H]1CCCN(Cc2cc3c(C4CC4)cn(-c4cccc([C@]5(c6nncn6C)C[C@@H](OC(F)F)C5)c4)c(=O)c3[nH]2)C1 [Example 96, cis-4-cyclopropyl-6-[3-[3-(difluoromethoxy)-1-(4-methyl-1,2,4-triazol-3-yl)cyclobutyl]phenyl]-2-[[(3S)-3-methylpiperidin-1-yl]methyl]-1H-pyrrolo[2,3-c]pyridin-7-one]	< 100	< 100
CC1CC(c2cccc(-n3cc(C4CC4)c4cc(CN5CC(F)(F)C5)[nH]c4c3=O)c2)(c2nncn2C)C1 (centres unmarked) [Example 58, 4-cyclopropyl-2-[(3,3-difluoroazetidin-1-yl)methyl]-6-{3-[3-methyl-1-(4-methyl-4H-1,2,4-triazol-3-yl)cyclobutyl]phenyl}-1H,6H,7H-pyrrolo[2,3-c]pyridin-7-one]	100 to 1000	< 100
CC(C)[C@H]1CN(C)CCN1Cc1cc2c(C3CC3)cn(-c3cccc(C4(c5nncn5C)CC5(CC5)C4)c3)c(=O)c2[nH]1 [Example 73, 4-cyclopropyl-2-{[(2S)-4-methyl-2-(propan-2-yl)piperazin-1-yl]methyl}-6-{3-[5-(4-methyl-4H-1,2,4-triazol-3-yl)spiro[2.3]hexan-5-yl]phenyl}-1H,6H,7H-pyrrolo[2,3-c]pyridin-7-one]	100 to 1000	< 100
CC1CC(c2cccc(-n3cc(C4CC4)c4cc(CN5CCC6(CC6)C5)[nH]c4c3=O)c2)(c2nncn2C)C1 (centres unmarked) [Example 63, 2-({5-azaspiro[2.4]heptan-5-yl}methyl)-4-cyclopropyl-6-{3-[(1r,3s)-3-methyl-1-(4-methyl-4H-1,2,4-triazol-3-yl)cyclobutyl]phenyl}-1H,6H,7H-pyrrolo[2,3-c]pyridin-7-one]	< 100	< 100
C[C@H]1CCCN(Cc2cc3c(C4CC4)cn(-c4cccc([C@]5(c6nccn6C)C[C@H](OC(F)F)C5)c4)c(=O)c3[nH]2)C1 [Example 97, 4-cyclopropyl-6-[3-[3-(difluoromethoxy)-1-(1-methylimidazol-2-yl)cyclobutyl]phenyl]-2-[[(3S)-3-methylpiperidin-1-yl]methyl]-1H-pyrrolo[2,3-c]pyridin-7-one]	100 to 1000	< 100
C[C@H]1CCCN(Cc2cc3c(C4CC4)cn(-c4cccc([C@]5(c6nncn6C(F)F)C[C@H](F)C5)c4)c(=O)c3[nH]2)C1 [Example 148, 2—{[(S)-3-methyl-1-piperidyl]methyl}-4-cyclopropyl-6-(m-{1-[4-(difluoromethyl)-4H-1,2,4-triazol-3-yl]-3-fluorocyclobutyl}phenyl)-1,6-dihydro-1,6-diaza-7-indenone]	< 100	< 100
C[C@H]1CCCN(Cc2cc3c(C4CC4)cn(-c4cccc(C5(c6nncn6CC(F)F)CC6(CC6)C5)c4)c(=O)c3[nH]2)C1 [Example 146, 4-Cyclopropyl-6-[3-[5-[4-(2,2-difluoroethyl)-1,2,4-triazol-3-yl]spiro[2.3]hexan-5-yl]phenyl]-2-[[(3S)-3-methylpiperidin-1-yl]methyl]-1H-pyrrolo[2,3-c]pyridin-7-one]	100 to 1000	< 100
Cn1cnnc1[C@]1(c2cccc(-n3cc(C4CC4)c4c(C#N)c[nH]c4c3=O)c2)C[C@H](C)C1 (single isomer, unassigned) [Example 14, 4-Cyclopropyl-7-oxo-6-{3-[(1r,3s)-3-methyl-1-(4-methyl-4H-1,2,4-triazol-3-yl)cyclobutyl]phenyl}-1H,6H,7H-pyrrolo[2,3-c]pyridine-3-carbonitrile]	100 to 1000	< 100
Cc1nnc(C2(c3cccc(-n4cc(C5CC5)c5cc(CN6CCC[C@H](C)C6)[nH]c5c4=O)c3)CC(F)(F)C2)n1C [Example 125, 4-cyclopropyl-6-[3-[1-(4,5-dimethyl-1,2,4-triazol-3-yl)-3,3-difluorocyclobutyl]phenyl]-2-[[(3S)-3-methylpiperidin-1-yl]methyl]-1H-pyrrolo[2,3-c]pyridin-7-one]	1000 to 5000	1000 to 5000
CC1CC(c2cccc(-n3cc(C4CC4)c4cc(CN[C@@H]5CCCOC5)[nH]c4c3=O)c2)(c2nncn2C)C1 (some centres unmarked) [Example 49, 4-cyclopropyl-6-{3-[3-methyl-1-(4-methyl-4H-1,2,4-triazol-3-yl)cyclobutyl]phenyl}-2-{[(oxan-3-yl)amino]methyl}-1H,6H,7H-pyrrolo[2,3-c]pyridin-7-one]	< 100	< 100
CC1CC(c2cccc(-n3cc(C4CC4)c4cc(CN5CCC6(CC5)CC6)[nH]c4c3=O)c2)(c2nncn2C)C1 (centres unmarked) [Example 50, 2-({6-azaspiro[2.5]octan-6-yl}methyl)-4-cyclopropyl-6-{3-[3-methyl-1-(4-methyl-4H-1,2,4-triazol-3-yl)cyclobutyl]phenyl}-1H,6H,7H-pyrrolo[2,3-c]pyridin-7-one]	< 100	< 100
CC1CC(c2cccc(-n3cc(C4CC4)c4c(S(C)(=O)=O)c(CN5CCC[C@H](C)C5)[nH]c4c3=O)c2)(c2nncn2C)C1 (mixture of isomers) [Example 135, 4-Cyclopropyl-3-methanesulfonyl-2-{[(3S)-3-methylpiperidin-1-yl]methyl}-6-{3-[(1R,3S)-3-methyl-1-(4-methyl-4H-1,2,4-triazol-3-yl)cyclobutyl]phenyl}-1H,6H,7H-pyrrolo[2,3-c]pyridin-7-one]	< 100	< 100
CC1CC(c2cccc(-n3cc(C4CC4)c4cc(CN5C[C@H](F)C[C@H](F)C5)[nH]c4c3=O)c2)(c2nncn2C)C1 (stereo partly drawn) [Example 67, 4-cyclopropyl-2-{[(3R,5S)-3,5-difluoropiperidin-1-yl]methyl}-6-{3-[(1r)-3-methyl-1-(4-methyl-4H-1,2,4-triazol-3-yl)cyclobutyl]phenyl}-1H,6H,7H-pyrrolo[2,3-c]pyridin-7-one]	1000 to 5000	100 to 1000
C[C@H]1CCCN(Cc2cc3c(C4CC4)cn(-c4cccc(C(F)c5nncn5C)c4)c(=O)c3[nH]2)C1 (stereo partly drawn) [Example 162, 4-cyclopropyl-6-[3-[fluoro-(4-methyl-1,2,4-triazol-3-yl)methyl]phenyl]-2-[[(3S)-3-methylpiperidin-1-yl]methyl]-1H-pyrrolo[2,3-c]pyridin-7-one]	100 to 1000	100 to 1000
CC(c1cccc(-n2cc(C3CC3)c3cc(CN4CCC[C@H](C)C4)[nH]c3c2=O)c1)c1nncn1C (stereo partly drawn) [Example 165, 4-cyclopropyl-2-[[(3S)-3-methylpiperidin-1-yl]methyl]-6-[3-[1-(4-methyl-1,2,4-triazol-3-yl)ethyl]phenyl]-1H-pyrrolo[2,3-c]pyridin-7-one]	< 100	< 100
